This is an account of results in ChEMBL document CHEMBL1141090, “Rational design, synthesis, and characterization of novel inhibitors for human beta1,4-galactosyltransferase” (J Med Chem, 2005).

Assay [1] has as its target T1, Beta-1,4-galactosyltransferase 1 (Homo sapiens, UniProt P15291).
T1 sequence (P15291 whole entry): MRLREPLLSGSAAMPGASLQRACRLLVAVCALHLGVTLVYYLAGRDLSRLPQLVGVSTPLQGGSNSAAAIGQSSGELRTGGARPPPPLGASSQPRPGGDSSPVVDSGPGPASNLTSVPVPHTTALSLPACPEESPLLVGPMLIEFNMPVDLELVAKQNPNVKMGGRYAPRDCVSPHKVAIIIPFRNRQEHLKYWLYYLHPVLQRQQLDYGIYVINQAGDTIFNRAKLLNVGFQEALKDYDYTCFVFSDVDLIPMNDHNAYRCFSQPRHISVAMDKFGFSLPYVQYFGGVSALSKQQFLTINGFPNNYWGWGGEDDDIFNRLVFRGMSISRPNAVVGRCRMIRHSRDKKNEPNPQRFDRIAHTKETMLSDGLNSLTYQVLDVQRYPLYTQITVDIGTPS
In words: Inhibitory constant against human Beta-1,4-galactosyltransferase I; N.I. is inactive.

Assay [2] addresses T1, Beta-1,4-galactosyltransferase 1. The assay is described as follows: Inhibitory constant against human recombinant Beta-1,4-galactosyltransferase I; N.I. is inactive.

Regarding `O=c1ccn([C@@H]2O[C@H](COP(=O)(O)OP(=O)(O)O[C@H]3O[C@@H](CNCCCCCCOCc4ccc5ccccc5c4)[C@H](O)[C@H](O)[C@@H]3O)[C@@H](O)[C@H]2O)c(=O)[nH]1`, in assay [1], the Ki result is given as “Not Active”. Take `O=c1ccn([C@@H]2O[C@H](COP(=O)(O)OP(=O)(O)O[C@H]3O[C@@H](CNCc4cccc5ccccc45)[C@H](O)[C@H](O)[C@@H]3O)[C@@H](O)[C@H]2O)c(=O)[nH]1`: the Ki result in assay [2] is reported as “Not Active”.
